# Experimental data as given in ChEMBL document CHEMBL5055633, “Amphipathic Barbiturates as Mimics of Antimicrobial Peptides and the Marine Natural Products Eusynstyelamides with Activity against Multi-resistant Clinical Isolates” (J Med Chem, 2021).
# Calls of active or inactive are those of the source. The rule behind the calls is not given here.
# What was measured:
# Acinetobacter baumannii [1] = test: Antimicrobial activity against oxacillinase-58 producing Acinetobacter baumannii K12-21 assessed as reduction in bacterial growth incubated for 48 hrs by microdilution method; format: functional
# MRC5 = test: Cytotoxicity against human MRC5 cells assessed as reduction in cell viability incubated for 24 hrs by colorimetric tetrazolium assay; format: functional, cell-based; conditions: MRC5, 24 h
# [2] = Antimicrobial activity against carbapenemase producing Klebsiella pneumoniae K47-25 assessed as reduction in bacterial growth incubated for 48 hrs by microdilution method; format: functional
# Staphylococcus aureus [3] = test: Antimicrobial activity against Staphylococcus aureus ATCC 9144 assessed as reduction in bacterial growth incubated for 48 hrs by microdilution susceptibility test; format: functional
# [4] = Hemolytic activity in human erythrocytes incubated for 1 hr by microplate reader; format: functional, cell-based; conditions: erythrocyte
# Staphylococcus aureus [5] = test: Antimicrobial activity against extended spectrum-lactamase-carbapenemas producing Staphylococcus aureus strain 85/2082 assessed as reduction in bacterial growth incubated for 48 hrs by microdilution method; format: functional
# Escherichia coli [6] = test: Antimicrobial activity against verona integron-encoded metallo-beta-lactamase-29-producing Escherichia coli 50639799 assessed as reduction in bacterial growth incubated for 48 hrs by microdilution method; format: functional
# Escherichia coli [7] = test: Antimicrobial activity against imipenem-type carbapenemase-26 producing Escherichia coli 50857972 assessed as reduction in bacterial growth incubated for 48 hrs by microdilution method; format: functional
# [8] = Antimicrobial activity against New Delhi metallo-beta lactamase-1 and oxacillinase -181 producing Klebsiella pneumoniae 50531633 assessed as reduction in bacterial growth incubated for 48 hrs by microdilution method; format: functional
# Streptococcus pneumoniae [9] = test: Antibacterial activity against in […] 168 assessed as decrease in bacterial viability at 3.1 ug/ml by cell viability assay; format: functional, organism-based; conditions: dose 3.1 µg/ml
# Streptococcus pneumoniae [10] = test: Antibacterial activity against in […] 168 assessed as decrease in bacterial viability at 6.3 ug/ml by cell viability assay; format: functional, organism-based; conditions: dose 6.3 µg/ml
# Acinetobacter baumannii [11] = test: Antimicrobial activity against oxacillinase-23 producing Acinetobacter baumannii K63-58 assessed as reduction in bacterial growth incubated for 48 hrs by microdilution method; format: functional
# Pseudomonas aeruginosa [12] = test: Antimicrobial activity against verona integron-encoded metallo-beta-lactamase producing Pseudomonas aeruginosa 50692520 assessed as reduction in bacterial growth incubated for 48 hrs by microdilution method; format: functional
# Escherichia coli [13] = test: Antibacterial activity against Escherichia coli HB101 assessed as decrease in bacterial viability at 6.3 ug/ml by cell viability assay; format: functional, organism-based; conditions: dose 6.3 µg/ml
# Pseudomonas aeruginosa [14] = test: Antimicrobial activity against New Delhi metallo-beta lactamase-1 producing Pseudomonas aeruginosa 50692172 assessed as reduction in bacterial growth incubated for 48 hrs by microdilution method; format: functional
# Enterococcus faecium [15] = test: Antimicrobial activity against extended spectrum-lactamase-carbapenemas producing Enterococcus faecium strain TUH.50-22 assessed as reduction in bacterial growth incubated for 48 hrs by microdilution method; format: functional
# [16] = tested on: Corynebacterium glutamicum; test: Antimicrobial activity against Corynebacterium glutamicum ATCC 13032 assessed as reduction in bacterial growth incubated for 48 hrs by microdilution susceptibility test; format: functional
# Acinetobacter baumannii [17] = test: Antimicrobial activity against oxacillinase-23 producing Acinetobacter baumannii K47-42 assessed as reduction in bacterial growth incubated for 48 hrs by microdilution method; format: functional
# Pseudomonas aeruginosa [18] = test: Antimicrobial activity against verona integron-encoded metallo-beta-lactamase-4 producing Pseudomonas aeruginosa K34-73 assessed as reduction in bacterial growth incubated for 48 hrs by microdilution method; format: functional
# Escherichia coli [19] = test: Membrano-lytic effect in Escherichia coli HB101 assessed as decrease in bacterial viability at 6.3 ug/ml by luciferase based real-time membrane integrity assay; format: functional, organism-based; conditions: dose 6.3 µg/ml
# HepG2 = test: Cytotoxicity against human HepG2 cells assessed as reduction in cell viability incubated for 24 hrs by colorimetric tetrazolium assay; format: functional, cell-based; conditions: HepG2, 24 h
# Acinetobacter baumannii [20] = test: Antimicrobial activity against oxacillinase-23 producing Acinetobacter baumannii K44-35 assessed as reduction in bacterial growth incubated for 48 hrs by microdilution method; format: functional
# Escherichia coli [21] = test: Antibacterial activity against in Escherichia coli HB101 assessed as decrease in bacterial viability at 3.1 ug/ml by cell viability assay; format: functional, organism-based; conditions: dose 3.1 µg/ml
# Staphylococcus aureus [22] = test: Antimicrobial activity against extended spectrum-lactamase-carbapenemas producing Staphylococcus aureus strain WIS assessed as reduction in bacterial growth incubated for 48 hrs by microdilution method; format: functional
# Escherichia coli [23] = test: Antimicrobial activity against oxacillinase-producing Escherichia coli 50579417 assessed as reduction in bacterial growth incubated for 48 hrs by microdilution method; format: functional
# Pseudomonas aeruginosa [24] = test: Antimicrobial activity against verona integron-encoded metallo-beta-lactamase-2 producing Pseudomonas aeruginosa K34-7 assessed as reduction in bacterial growth incubated for 48 hrs by microdilution method; format: functional
# Escherichia coli [25] = test: Antimicrobial activity against New Delhi metallo-beta lactamase-1 producing Escherichia coli 50676002 assessed as reduction in bacterial growth incubated for 48 hrs by microdilution method; format: functional
# Staphylococcus aureus [26] = test: Antimicrobial activity against extended spectrum-lactamase-carbapenemas producing Staphylococcus aureus NCTC 10442 assessed as reduction in bacterial growth incubated for 48 hrs by microdilution method; format: functional
# Escherichia coli [27] = test: Membrano-lytic effect in Escherichia coli HB101 assessed as decrease in bacterial viability at 3.1 ug/ml by luciferase based real-time membrane integrity assay; format: functional, organism-based; conditions: dose 3.1 µg/ml
# Pseudomonas aeruginosa [28] = test: Antimicrobial activity against imipenem-type carbapenemase-14 producing Pseudomonas aeruginosa K44-24 assessed as reduction in bacterial growth incubated for 48 hrs by microdilution method; format: functional
# Enterococcus faecium [29] = test: Antimicrobial activity against extended spectrum-lactamase-carbapenemas producing Enterococcus faecium strain 50901530 assessed as reduction in bacterial growth incubated for 48 hrs by microdilution method; format: functional
# [30] = Antimicrobial activity against oxacillinase-245 producing Klebsiella pneumoniae 50625602 assessed as reduction in bacterial growth incubated for 48 hrs by microdilution method; format: functional
# [31] = Antimicrobial activity against New Delhi metallo-beta lactamase-1 Klebsiella pneumoniae K66-45 assessed as reduction in bacterial growth incubated for 48 hrs by microdilution method; format: functional
# Enterococcus faecium [32] = test: Antimicrobial activity against extended spectrum-lactamase-carbapenemas producing Enterococcus faecium strain K36-18 assessed as reduction in bacterial growth incubated for 48 hrs by microdilution method; format: functional
# Acinetobacter baumannii [33] = test: Antimicrobial activity against oxacillinase-24 producing Acinetobacter baumannii K55-13 assessed as reduction in bacterial growth incubated for 48 hrs by microdilution method; format: functional
# Enterococcus faecium [34] = test: Antimicrobial activity against extended spectrum-lactamase-carbapenemas producing Enterococcus faecium strain 50673722 assessed as reduction in bacterial growth incubated for 48 hrs by microdilution method; format: functional
# [35] = Antimicrobial activity against verona integron-encoded metallo-beta-lactamase -1 producing Klebsiella pneumoniae 50667959 assessed as reduction in bacterial growth incubated for 48 hrs by microdilution method; format: functional
# Pseudomonas aeruginosa [36] = test: Antimicrobial activity against Pseudomonas aeruginosa PAO1 assessed as reduction in bacterial growth incubated for 48 hrs by microdilution susceptibility test; format: functional
# Escherichia coli [37] = test: Antimicrobial activity against New Delhi metallo-beta lactamase-1 producing Escherichia coli 50739822 assessed as reduction in bacterial growth incubated for 48 hrs by microdilution method; format: functional
# Enterococcus faecium [38] = test: Antimicrobial activity against extended spectrum-lactamase-carbapenemas producing Enterococcus faecium strain 50758899 assessed as reduction in bacterial growth incubated for 48 hrs by microdilution method; format: functional
# Staphylococcus aureus [39] = test: Antimicrobial activity against extended spectrum-lactamase-carbapenemas producing Staphylococcus aureus N315 assessed as reduction in bacterial growth incubated for 48 hrs by microdilution method; format: functional
# Staphylococcus aureus [40] = test: Antimicrobial activity against extended spectrum-lactamase-carbapenemas producing Staphylococcus aureus strain IHT 99040 assessed as reduction in bacterial growth incubated for 48 hrs by microdilution method; format: functional
# Escherichia coli [41] = test: Antimicrobial activity against Escherichia coli ATCC 25922 assessed as reduction in bacterial growth incubated for 48 hrs by microdilution susceptibility test; format: functional
# Streptococcus pneumoniae [42] = test: Antibacterial activity against Klebsiella pneumoniae KP3010 infected in mouse peritonitis model assessed as reduction in colony forming unit at 1.4 mg/kg, ip treatment repeated after 3 hrs relative to control; format: functional
# Escherichia coli [43] = test: Antibacterial activity against Escherichia coli EC106-09 infected in mouse peritonitis model assessed as reduction in colony forming unit at 1.4 mg/kg, ip treatment repeated after 3 hrs relative to control; format: functional
# [44] = Toxicity in ip dosed mouse assessed as maximum tolerated dose; format: organism-based; conditions: in vivo
# Streptococcus pneumoniae [45] = test: Antibacterial activity against Klebsiella pneumoniae KP3010 infected in mouse peritonitis model assessed as reduction in colony forming unit at 1.4 mg/kg, ip relative to control; format: functional
# Mus musculus = test: Toxicity in mouse assessed as tolerability at 2.8 to 3.6 mg/kg, ip; format: organism-based; conditions: in vivo, dose 2.8-3.6 mg/kg
# Escherichia coli [46] = test: Antibacterial activity against Escherichia coli EC106-09 infected in mouse peritonitis model assessed as reduction in colony forming unit at 1.4 mg/kg, ip relative to control; format: functional
structure (smiles),measurement,setting,value
NCCCCN1C(=O)N(CCCCN)C(=O)C(Cc2cc(Br)cc(Br)c2)(Cc2cc(Br)cc(Br)c2)C1=O.O=C(O)C(F)(F)F.O=C(O)C(F)(F)F,MIC,Acinetobacter baumannii [1],16 µg/mL
same,IC50,MRC5,2 µg/mL
same,MIC,[2],16 µg/mL
same,MIC,Staphylococcus aureus [3],4 µg/mL
same,EC50,[4],79 µg/mL
same,MIC,Staphylococcus aureus [5],4 µg/mL
same,MIC,Escherichia coli [6],8 µg/mL
same,MIC,Escherichia coli [7],8 µg/mL
same,MIC,[8],8 µg/mL
same,Activity,Streptococcus pneumoniae [9],Active
same,Activity,Streptococcus pneumoniae [10],Active
same,MIC,Acinetobacter baumannii [11],16 µg/mL
same,MIC,Pseudomonas aeruginosa [12],16 µg/mL
same,Activity,Escherichia coli [13],Active
same,MIC,Pseudomonas aeruginosa [14],16 µg/mL
same,MIC,Enterococcus faecium [15],4 µg/mL
same,MIC,[16],1 µg/mL
same,MIC,Acinetobacter baumannii [17],16 µg/mL
same,MIC,Pseudomonas aeruginosa [18],16 µg/mL
same,Activity,Escherichia coli [19],Active
same,IC50,HepG2,4 µg/mL
same,MIC,Acinetobacter baumannii [20],16 µg/mL
same,Activity,Escherichia coli [21],Active
same,MIC,Staphylococcus aureus [22],4 µg/mL
same,MIC,Escherichia coli [23],8 µg/mL
same,MIC,Pseudomonas aeruginosa [24],16 µg/mL
same,MIC,Escherichia coli [25],8 µg/mL
same,MIC,Staphylococcus aureus [26],4 µg/mL
same,Activity,Escherichia coli [27],Active
same,MIC,Pseudomonas aeruginosa [28],16 µg/mL
same,MIC,Enterococcus faecium [29],4 µg/mL
same,MIC,[30],16 µg/mL
same,MIC,[31],16 µg/mL
same,MIC,Enterococcus faecium [32],8 µg/mL
same,MIC,Acinetobacter baumannii [33],16 µg/mL
same,MIC,Enterococcus faecium [34],4 µg/mL
same,MIC,[35],16 µg/mL
same,MIC,Pseudomonas aeruginosa [36],8 µg/mL
same,MIC,Escherichia coli [37],8 µg/mL
same,MIC,Enterococcus faecium [38],4 µg/mL
same,MIC,Staphylococcus aureus [39],4 µg/mL
same,MIC,Staphylococcus aureus [40],4 µg/mL
same,MIC,Escherichia coli [41],4 µg/mL
N=C(N)NCCCCN1C(=O)N(CCCCNC(=N)N)C(=O)C(Cc2cc(Br)cc(Br)c2)(Cc2cc(Br)cc(Br)c2)C1=O.O=C(O)C(F)(F)F.O=C(O)C(F)(F)F,MIC,Acinetobacter baumannii [1],4 µg/mL
same,inhibition in vivo at 1.4 mg/kg,Streptococcus pneumoniae [42],97%
same,IC50,MRC5,11 µg/mL
same,MIC,[2],4 µg/mL
same,MIC,Staphylococcus aureus [3],1 µg/mL
same,EC50,[4],62 µg/mL
same,MIC,Staphylococcus aureus [5],2 µg/mL
same,MIC,Escherichia coli [6],4 µg/mL
same,MIC,Escherichia coli [7],4 µg/mL
same,MIC,[8],4 µg/mL
same,Activity,Streptococcus pneumoniae [9],Active
same,Activity,Streptococcus pneumoniae [10],Active
same,MIC,Acinetobacter baumannii [11],4 µg/mL
same,MIC,Pseudomonas aeruginosa [12],16 µg/mL
same,Activity,Escherichia coli [13],Active
same,inhibition in vivo at 1.4 mg/kg,Escherichia coli [43],97%
same,MIC,Pseudomonas aeruginosa [14],8 µg/mL
same,MTD,[44],7 mg/kg
same,inhibition in vivo at 1.4 mg/kg,Streptococcus pneumoniae [45],98%
same,MIC,Enterococcus faecium [15],2 µg/mL
same,MIC,[16],0.25 µg/mL
same,MIC,Acinetobacter baumannii [17],4 µg/mL
same,MIC,Pseudomonas aeruginosa [18],8 µg/mL
same,Activity,Escherichia coli [19],Active
same,IC50,HepG2,30 µg/mL
same,MIC,Acinetobacter baumannii [20],4 µg/mL
same,Activity,Escherichia coli [21],Active
same,MIC,Staphylococcus aureus [22],2 µg/mL
same,MIC,Escherichia coli [23],4 µg/mL
same,MIC,Pseudomonas aeruginosa [24],8 µg/mL
same,MIC,Escherichia coli [25],4 µg/mL
same,MIC,Staphylococcus aureus [26],2 µg/mL
same,Activity,Escherichia coli [27],Active
same,MIC,Pseudomonas aeruginosa [28],8 µg/mL
same,MIC,Enterococcus faecium [29],2 µg/mL
same,MIC,[30],4 µg/mL
same,Activity,Mus musculus,Non-Toxic
same,inhibition in vivo at 1.4 mg/kg,Escherichia coli [46],90%
same,MIC,[31],4 µg/mL
same,MIC,Enterococcus faecium [32],4 µg/mL
same,MIC,Acinetobacter baumannii [33],8 µg/mL
same,MIC,Enterococcus faecium [34],4 µg/mL
same,MIC,[35],4 µg/mL
same,MIC,Pseudomonas aeruginosa [36],4 µg/mL
same,MIC,Escherichia coli [37],4 µg/mL
same,MIC,Enterococcus faecium [38],4 µg/mL
same,MIC,Staphylococcus aureus [39],2 µg/mL
same,MIC,Staphylococcus aureus [40],2 µg/mL
same,MIC,Escherichia coli [41],2 µg/mL
